From US11414387B2, “Oxoacridinyl acetic acid derivatives and methods of use” (Stingthera, Inc., priority 2017, dated 2022)
pIC50: −log10 of the molar value.

Assays:
[1] = target: mSTING-CTD (Mus musculus (Mouse), UniProt Q3TBT3); test: Mouse STING protein FP competition concentration response assay; format: binding
Description: (§1) A validated STING ligand, such as c-di-GMP, which is labeled with a read-out signal (e.g., a fluorescence signal such as fluorescein), is mixed with STING-CTD (e.g., mouse STING-CTD or human STING-CTD) with or without the presence of a compound of the present application. Changes in the read-out signal are measured (e.g., by fluorescence anisotropy) to determine the binding of the compound to STING-CTD.
(§2) Fluorescein labeled c-di-GMP was mixed with mSTING-CTD with or without the presence of a compound of the present application in PBS in black 384-well plates (10 μL per well). The fluorescence anisotropy was determined on a PerkinElmer EnVisions multi-mode plate reader. The plate can be read immediately after mixing the reagents or after a few hours without change of signals.
• 1) 6×his-sumo-mSTING (Supplier: HDB) • 2) 2′-Fluo-AHC-c-di GMP (BIOLOG #F009) • 3) 23-cGAMP (BIOLOG #C161) • 4) DMXAA (InvivoGen #tlrl-dmx) • 5) DMSO (Sigma. #D5879-100 mL) • 6) 10×PBS(HDB #MCP-020) • 7) Assay plate, 384-well black plate, solid black bottom (Greiner #784076) • 8) Compound dilution intermediate plate, 384 LDV plate (Labcyte #LP-0200) • 9) Liquid handler, ECHO550 (Labcyte) • 10) Liquid handler, Bravo (Aglient) • 11) Reader, Envision (PerkinElmer) • 12) Centrifuge (Eppendorf) • 13) Multichannel Pipette (Raining) • 14) 10 ml Reservoir (Corning) • 15) 15 ml centrifuge tube (Corning) • 16) Adhesive Plate seals (BioRad) Compound Preparation • a) Containers of each compound were centrifuged at 1000 rpm for 5 min. • b) Compounds were dissolved in DMSO at 30 mM. • c) Compounds were sufficiently vortexed, and centrifuged at 1000 rpm for 1 min. • d) 16 uL of the compound solution was transferred into a LDV Compound Plate. • e) 2-fold serial dilutions of the compound solution were made with DMSO, and 14 concentrations were made in the 384-well LDV Compound Plate. • f) The LDV plate was spun at 1000 rpm for 60 sec and sealed with foil (stored at −20° C. if not used immediately). • g) 335 nL of each compound from the LDV Compound Plate was transferred to Assay Plate (ECHO550). Probe Preparation • a) 200 uM probe stock (2′-Fluo-AHC-c-diGMP) was diluted by dd2O to 6 uM working concentration. • b) 10-12 uL 6 uM working solution of probe was transferred into the LDV plate. • c) 50 nL per well 6 uM working solution of probe was transferred from the LDV plate to each well of the empty Assay Plate (Greiner 784076) by ECHO550 Buffer mode. • d) Probe final concentration was 30 nM when assay system was 10 uL. • e) The Assay Plate was spun at 1000 rpm for 1 min. Compound Addition • a) After the LDV Compound Plate was prepared, 100 nL compound (ECHO550 DMSO mode) was transferred from the LDV Compound Plate into the Assay Plate (Greiner 784076) containing 50 nL probe in each well according to the Assay Plate layout. • b) DMSO final concentration was 1% when assay system was 10 uL. • c) The Assay Plate was spun at 1000 rpm for 1 min. Protein Addition • a) Aliquot of 6×his-sumo-mSTING protein was thawed on ice, briefly to generate uniform solution. • b) 66 uM stock protein was diluted in 1×PBS assay buffer to generate 8 uM final solutions. • c) For test compound and ZPE wells, 10 μL per well of 8 uM protein solutions was added into the Assay Plate containing both the probe and test compounds or DMSO using multichannel pipette. • d) For HPE wells, 10 µL/well of 1×PBS assay buffer instead of protein was added into the Assay Plate containing both the probe and DMSO using multichannel pipette. • e) The Assay Plate was spun at 1000 rpm for 1 min. • f) The Assay Plate was incubated at r.t. for 10-20 min.
(§3) The EnVision plate reader was used to record the FA value of each well immediately after mixing the reagents or after a few hours without change of signals.
(§4) The raw data and calculated data (Fluorescence anisotropy (FA)) was exported from the EnVision reader. […]

[2] = target: hSTING-CTD (Homo sapiens (Human), UniProt Q86WV6); test: Human STING protein FP competition concentration response assay; format: binding
Description: as §1
as §2, with “c-di-GMP, a validated STING ligand,” for “c-di-GMP”, “recombinant hSTING-CTD in a homogenous assay format” for “mSTING-CTD”, “application (titrated)” for “application”
• 1) hSTING (Supplier: HDB) • 2) 2′-Fluo-AHC-c-di GMP (BIOLOG #F009) • 3) 2′3′-cGAMP (BIOLOG #C161) • 4) DMXAA (InvivoGen #tlrl-dmx) • 5) DMSO (Sigma, #D5879-100 mL) • 6) 10×PBS(HDB #MCP-020) • 7) Assay plate, 384-well black plate, solid black bottom (Greiner #784076) • 8) Compound dilution intermediate plate, 384 LDV plate (Labcyte #LP-0200) • 9) Liquid handler, ECHO550 (Labcyte) • 10) Liquid handler, Bravo (Aglient) • 11) Reader, Envision (PerkinElmer) • 12) Centrifuge (Eppendorf) • 13) Multichannel Pipette (Raining) • 14) 10 ml Reservoir (Corning) • 15) 15 ml centrifuge tube (Corning) • 16) Adhesive Plate seals (BioRad) Compound Preparation • a) Containers of each compound were centrifuged at 1000 rpm for 5 min. • b) Compounds were dissolved in DMSO at 30 mM. • c) Compounds were sufficiently vortexed, and centrifuged at 1000 rpm for 1 min. • d) 16 uL of the compound solution was transferred into a LDV Compound Plate. • e) 2-fold serial dilutions of the compound solution were made with DMSO, and 14 concentrations were made in the 384-well LDV Compound Plate. • f) The LDV plate was spun at 1000 rpm for 60 sec and sealed with foil (stored at −20° C. if not used immediately). • g) 335 nL of each compound from the LDV Compound Plate was transferred to Assay Plate (ECHO550). Probe Preparation • a) 200 uM probe stock (2′-Fluo-AHC-c-diGMP) was diluted by ddH2O to 6 uM working concentration. • b) 10-12 uL 6 uM working solution of probe was transferred into the LDV plate. • c) 50 nL per well 6 uM working solution of probe was transferred from the LDV plate to each well of the empty Assay Plate (Greiner 784076) by ECHO550 Buffer mode. • d) Probe final concentration was 30 nM when assay system was 10 uL. • e) The Assay Plate was spun at 1000 rpm for 1 min. Compound Addition • a) After the LDV Compound Plate was prepared, 335 nL compound (ECHO550 DMSO mode) was transferred from the LDV Compound Plate into the Assay Plate (Greiner 784076) containing 50 nL probe in each well according to the Assay Plate layout. • b) DMSO final concentration was 3.35% when assay system was 10 uL. • c) The Assay Plate was spun at 1000 rpm for 1 min. Protein Addition • a) Aliquot of hSTING protein was thawed on ice, briefly to generate uniform solution. • b) 55 uM stock protein was diluted in 1×PBS assay buffer to generate 10 uM final solutions. • c) For test compound and ZPE wells, 10 μL per well of 10 uM protein solutions was added into the Assay Plate containing both the probe and test compounds or DMSO using multichannel pipette. • d) For HPE wells, 10 μL/well of 1×PBS assay buffer instead of protein was added into the Assay Plate containing both the probe and DMSO using multichannel pipette. • e) The Assay Plate was spun at 1000 rpm for Imin. • f) The Assay Plate was incubated at r.t. for 10-20 min.
as §3, §4

Sequence of hSTING-CTD (Q86WV6 135-379): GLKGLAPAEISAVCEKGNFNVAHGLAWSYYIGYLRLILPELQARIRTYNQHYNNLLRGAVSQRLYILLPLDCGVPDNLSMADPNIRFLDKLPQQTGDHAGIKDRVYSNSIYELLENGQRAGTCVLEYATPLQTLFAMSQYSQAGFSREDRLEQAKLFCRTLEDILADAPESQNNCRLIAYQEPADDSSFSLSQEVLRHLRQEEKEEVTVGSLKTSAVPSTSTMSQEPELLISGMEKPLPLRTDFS
Sequence of mSTING-CTD (Q3TBT3 134-378): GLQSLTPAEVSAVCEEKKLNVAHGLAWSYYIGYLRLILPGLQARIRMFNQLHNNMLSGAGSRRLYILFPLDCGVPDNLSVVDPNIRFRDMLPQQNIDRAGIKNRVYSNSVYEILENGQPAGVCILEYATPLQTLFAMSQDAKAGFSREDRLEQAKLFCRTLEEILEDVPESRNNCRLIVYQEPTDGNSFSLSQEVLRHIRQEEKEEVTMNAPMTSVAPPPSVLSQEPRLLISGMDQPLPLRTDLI

pIC50 [1]	pIC50 [2]	SMILES
4.00 to 4.30	–	O=C(O)Cn1c2ccccc2c(=O)c2c(Br)cccc21 [Compound 20]
4.30 to 5.00	–	Cc1ccc2c(=O)c3ccc(F)cc3n(CC(=O)O)c2c1 [Compound 33]
4.00 to 4.30	–	O=C(O)Cn1c2ccccc2c(=O)c2c(Cl)cccc21 [Compound 2]
4.30 to 5.00	–	O=C(O)Cn1c2ccccc2c(=O)c2ccc(Br)cc21 [Compound 18]
4.30 to 5.00	–	Cc1ccc2c(=O)c3c(Cl)cccc3n(CC(=O)O)c2c1 [Compound 16]
4.30 to 5.00	> 4.00	O=C(O)Cn1c2cc(N3CCOCC3)ccc2c(=O)c2ccc(Cl)c(Cl)c21 [Compound 60]
4.30 to 5.00	> 4.00	CC(C)c1ccc2c(=O)c3ccc(Cl)c(Cl)c3n(CC(=O)O)c2c1 [Compound 81]
4.30 to 5.00	3.30 to 4.00	Cc1ccc2c(=O)c3ccc(Br)cc3n(CC(=O)O)c2c1 [Compound 53]
> 5.00	3.00 to 3.30	O=C(O)Cn1c2ccccc2c(=O)c2ccc3c(c21)CCCC3 [Compound 9]
4.30 to 5.00	–	Cc1ccc2c(=O)c3c(F)cccc3n(CC(=O)O)c2c1 [Compound 36]
< 4.00	3.30 to 4.00	Cc1ccc2c(=O)c3cc(CCc4ccccc4C)ccc3n(CC(=O)O)c2c1 [Compound 75]
4.30 to 5.00	3.30 to 4.00	Cc1ccc2c(=O)c3ccc(Cl)c(Cl)c3n(CC(=O)O)c2c1 [Compound 29]
4.30 to 5.00	–	Cc1ccc2c(=O)c3ccccc3n(CC(=O)O)c2c1 [Compound 6]
< 4.00	–	O=C(O)Cn1c2ccccc2c(=O)c2cc(Br)ccc21 [Compound 21]
4.30 to 5.00	–	O=C(O)Cn1c2ccccc2c(=O)c2ccc(Cl)cc21 [Compound 5]
4.30 to 5.00	< 3.00	Cc1ccc2c(=O)c3ccccc3n(CC(=O)O)c2c1Cl [Compound 19]
4.30 to 5.00	3.00 to 3.30	Cc1c(Cl)ccc2c(=O)c3ccccc3n(CC(=O)O)c12 [Compound 98]
4.30 to 5.00	> 4.00	Cc1cccc(-c2ccc3c(c2)c(=O)c2ccc(Cl)c(Cl)c2n3CC(=O)O)c1 [Compound 68]
4.30 to 5.00	< 3.00	Cc1ccc2c(c1)c(=O)c1ccccc1n2CC(=O)O [Compound 10]
4.00 to 4.30	< 3.00	Cc1c(CCc2ccccc2)ccc2c(=O)c3ccccc3n(CC(=O)O)c12 [Compound 27]

pIC50 [1]	pIC50 [2]	SMILES
4.30 to 5.00	< 3.00	Cc1cccc2c(=O)c3ccccc3n(CC(=O)O)c12 [Compound 7]
> 5.00	3.00 to 3.30	Cc1ccc2c(=O)c3cccc(C)c3n(CC(=O)O)c2c1 [Compound 11]
4.30 to 5.00	3.30 to 4.00	CN(C)c1ccc2c(=O)c3ccc(Cl)c(Cl)c3n(CC(=O)O)c2c1 [Compound 71]
4.30 to 5.00	–	Cc1ccc2c(=O)c3c(C)cccc3n(CC(=O)O)c2c1 [Compound 14]
4.30 to 5.00	3.30 to 4.00	O=C(O)Cn1c2ccccc2c(=O)c2cc(CCc3ccccc3)ccc21 [Compound 23]
< 4.00	–	COc1cccc2c1c(=O)c1ccc(C)cc1n2CC(=O)O [Compound 32]
< 4.00	3.00 to 3.30	CC1(C)CCC=C(c2ccc3c(c2)c(=O)c2ccc(Cl)c(Cl)c2n3CC(=O)O)C1 [Compound 67]
4.00 to 4.30	–	O=C(O)Cn1c2ccccc2c(=O)c2c(F)cccc21 [Compound 1]
4.30 to 5.00	< 3.00	COc1ccc2c(=O)c3ccc(C)cc3n(CC(=O)O)c2c1 [Compound 34]
> 5.00	3.00 to 3.30	O=C(O)Cn1c2ccccc2c(=O)c2ccc(CCc3ccccc3)cc21 [Compound 26]
> 5.00	3.00 to 3.30	Cc1ccc2c(=O)c3cccc(Cl)c3n(CC(=O)O)c2c1 [Compound 12]
4.30 to 5.00	< 3.00	O=C(O)Cn1c2ccccc2c(=O)c2cccc(Cl)c21 [Compound 8]
4.30 to 5.00	3.00 to 3.30	O=C(O)Cn1c2ccccc2c(=O)c2cc(C#Cc3ccccc3)ccc21 [Compound 22]
4.00 to 4.30	3.30 to 4.00	Cc1cc2c(=O)c3ccc(Cl)c(Cl)c3n(CC(=O)O)c2cc1C [Compound 94]
4.30 to 5.00	> 4.00	O=C(O)Cn1c2cc(N3CCCCC3)ccc2c(=O)c2ccc(Cl)c(Cl)c21 [Compound 61]
4.30 to 5.00	–	O=C(O)Cn1c2ccccc2c(=O)c2ccc(C#Cc3ccccc3)cc21 [Compound 25]
4.30 to 5.00	–	O=C(O)Cn1c2ccccc2c(=O)c2ccc(F)cc21 [Compound 4]
4.30 to 5.00	–	COc1ccc2c(=O)c3c(C)cccc3n(CC(=O)O)c2c1 [Compound 35]
4.00 to 4.30	3.00 to 3.30	Cc1ccc2c(=O)c3ccccc3n(CC(=O)O)c2c1C [Compound 99]
4.30 to 5.00	–	Cc1cccc2c1c(=O)c1ccccc1n2CC(=O)O [Compound 3]
